# Measurements reported in PubChem BioAssay AID1259407 (Chemical Carcinogenesis Research Information System (CCRIS), 2018).
# Activity calls are given as the source filed them. How the calls were made is not given here.
# Tested on: CCRIS mutagenicity, Ames/micronucleus/aberration tests
# Assay: CCRIS mutagenicity studies
# [1] = Test System: AMES SALMONELLA TYPHIMURIUM, Strain/Indicator: TA92, Metabolic Activation: NONE, Method: STANDARD PLATE
# [2] = Test System: AMES SALMONELLA TYPHIMURIUM, Strain/Indicator: TA98, Metabolic Activation: NONE, Method: STANDARD PLATE
# [3] = Test System: AMES SALMONELLA TYPHIMURIUM, Strain/Indicator: TA100, Metabolic Activation: NONE, Method: STANDARD PLATE
# [4] = Test System: AMES SALMONELLA TYPHIMURIUM, Strain/Indicator: TA1535, Metabolic Activation: NONE, Method: STANDARD PLATE
# [5] = Test System: AMES SALMONELLA TYPHIMURIUM, Strain/Indicator: TA1537, Metabolic Activation: NONE, Method: STANDARD PLATE
# [6] = Test System: AMES SALMONELLA TYPHIMURIUM, Strain/Indicator: TA1538, Metabolic Activation: NONE, Method: STANDARD PLATE
# [7] = Test System: AMES SALMONELLA TYPHIMURIUM, Strain/Indicator: TA98, Metabolic Activation: RAT, LIVER, S-9, AROCLOR 1254, Method: STANDARD PLATE
# [8] = Test System: AMES SALMONELLA TYPHIMURIUM, Strain/Indicator: TA100, Metabolic Activation: RAT, LIVER, S-9, AROCLOR 1254, Method: STANDARD PLATE
compound,measurement,setting,value
Cc1ccc(N=NN(C)C)cc1,mutagenic call,"Test System: AMES SALMONELLA TYPHIMURIUM, Strain/Indicator: TA92, Metabolic Activation: MOUSE, LIVER, S-9, POLYCHLORINATED BIPHENYLS, Method: PREINCUBATION",inactive; negative
same,mutagenic call,"Test System: AMES SALMONELLA TYPHIMURIUM, Strain/Indicator: TA92, Metabolic Activation: MOUSE, LIVER, S-9, POLYCHLORINATED BIPHENYLS, Method: STANDARD PLATE",inactive; negative
same,mutagenic call,[1],inactive; negative
same,mutagenic call,"Test System: AMES SALMONELLA TYPHIMURIUM, Strain/Indicator: TA97, Metabolic Activation: MOUSE, LIVER, S-9, POLYCHLORINATED BIPHENYLS, Method: PREINCUBATION",inactive; negative
same,mutagenic call,"Test System: AMES SALMONELLA TYPHIMURIUM, Strain/Indicator: TA97, Metabolic Activation: MOUSE, LIVER, S-9, POLYCHLORINATED BIPHENYLS, Method: STANDARD PLATE",inactive; negative
same,mutagenic call,"Test System: AMES SALMONELLA TYPHIMURIUM, Strain/Indicator: TA97, Metabolic Activation: NONE, Method: STANDARD PLATE",active; positive
same,mutagenic call,"Test System: AMES SALMONELLA TYPHIMURIUM, Strain/Indicator: TA98, Metabolic Activation: MOUSE, LIVER, S-9, POLYCHLORINATED BIPHENYLS, Method: PREINCUBATION",inactive; negative
same,mutagenic call,"Test System: AMES SALMONELLA TYPHIMURIUM, Strain/Indicator: TA98, Metabolic Activation: MOUSE, LIVER, S-9, POLYCHLORINATED BIPHENYLS, Method: STANDARD PLATE",active; positive
same,mutagenic call,[2],active; positive
same,mutagenic call,"Test System: AMES SALMONELLA TYPHIMURIUM, Strain/Indicator: TA100, Metabolic Activation: MOUSE, LIVER, S-9, POLYCHLORINATED BIPHENYLS, Method: PREINCUBATION",inactive; negative
same,mutagenic call,"Test System: AMES SALMONELLA TYPHIMURIUM, Strain/Indicator: TA100, Metabolic Activation: MOUSE, LIVER, S-9, POLYCHLORINATED BIPHENYLS, Method: STANDARD PLATE",inactive; negative
same,mutagenic call,[3],inactive; negative
same,mutagenic call,"Test System: AMES SALMONELLA TYPHIMURIUM, Strain/Indicator: TA1535, Metabolic Activation: MOUSE, LIVER, S-9, POLYCHLORINATED BIPHENYLS, Method: PREINCUBATION",inactive; negative
same,mutagenic call,"Test System: AMES SALMONELLA TYPHIMURIUM, Strain/Indicator: TA1535, Metabolic Activation: MOUSE, LIVER, S-9, POLYCHLORINATED BIPHENYLS, Method: STANDARD PLATE",inactive; negative
same,mutagenic call,[4],inactive; negative
same,mutagenic call,"Test System: AMES SALMONELLA TYPHIMURIUM, Strain/Indicator: TA1537, Metabolic Activation: MOUSE, LIVER, S-9, POLYCHLORINATED BIPHENYLS, Method: PREINCUBATION",active; positive
same,mutagenic call,"Test System: AMES SALMONELLA TYPHIMURIUM, Strain/Indicator: TA1537, Metabolic Activation: MOUSE, LIVER, S-9, POLYCHLORINATED BIPHENYLS, Method: STANDARD PLATE",active; positive
same,mutagenic call,[5],active; positive
same,mutagenic call,"Test System: AMES SALMONELLA TYPHIMURIUM, Strain/Indicator: TA1538, Metabolic Activation: MOUSE, LIVER, S-9, POLYCHLORINATED BIPHENYLS, Method: PREINCUBATION",active; positive
same,mutagenic call,"Test System: AMES SALMONELLA TYPHIMURIUM, Strain/Indicator: TA1538, Metabolic Activation: MOUSE, LIVER, S-9, POLYCHLORINATED BIPHENYLS, Method: STANDARD PLATE",active; positive
same,mutagenic call,[6],active; positive
CCCCCN(CCCOC)C(=O)C(CCC(=O)O)NC(=O)c1ccc(Cl)c(Cl)c1 (stereo unspecified),mutagenic call,"Test System: AMES SALMONELLA TYPHIMURIUM, Strain/Indicator: TA98, Metabolic Activation: NONE, Method: PREINCUBATION",inactive; negative
same,mutagenic call,"Test System: AMES SALMONELLA TYPHIMURIUM, Strain/Indicator: TA98, Metabolic Activation: RAT LIVER S-9, PHENOBARBITAL AND 5,6-BENZOFLAVONE, Method: PREINCUBATION",inactive; negative
same,mutagenic call,"Test System: AMES SALMONELLA TYPHIMURIUM, Strain/Indicator: TA100, Metabolic Activation: NONE, Method: PREINCUBATION",inactive; negative
same,mutagenic call,"Test System: AMES SALMONELLA TYPHIMURIUM, Strain/Indicator: TA100, Metabolic Activation: RAT LIVER S-9, PHENOBARBITAL AND 5,6-BENZOFLAVONE, Method: PREINCUBATION",inactive; negative
same,mutagenic call,"Test System: AMES SALMONELLA TYPHIMURIUM, Strain/Indicator: TA1535, Metabolic Activation: NONE, Method: PREINCUBATION",inactive; negative
same,mutagenic call,"Test System: AMES SALMONELLA TYPHIMURIUM, Strain/Indicator: TA1535, Metabolic Activation: RAT LIVER S-9, PHENOBARBITAL AND 5,6-BENZOFLAVONE, Method: PREINCUBATION",inactive; negative
same,mutagenic call,"Test System: AMES SALMONELLA TYPHIMURIUM, Strain/Indicator: TA1537, Metabolic Activation: NONE, Method: PREINCUBATION",inactive; negative
same,mutagenic call,"Test System: AMES SALMONELLA TYPHIMURIUM, Strain/Indicator: TA1537, Metabolic Activation: RAT LIVER S-9, PHENOBARBITAL AND 5,6-BENZOFLAVONE, Method: PREINCUBATION",inactive; negative
same,mutagenic call,"Test System: E.COLI, Strain/Indicator: WP2 UVRA, Metabolic Activation: NONE, Method: PREINCUBATION",inactive; negative
same,mutagenic call,"Test System: E.COLI, Strain/Indicator: WP2 UVRA, Metabolic Activation: RAT LIVER S-9, PHENOBARBITAL AND 5,6-BENZOFLAVONE, Method: PREINCUBATION",inactive; negative
O=C(N=c1sn(C(=O)c2ccc([N+](=O)[O-])cc2)c2ccc(Cl)cc12)c1ccc([N+](=O)[O-])cc1,mutagenic call,"Test System: AMES SALMONELLA TYPHIMURIUM, Strain/Indicator: TA100, Metabolic Activation: S-9, Method: STANDARD PLATE",active; positive
C=CCc1[c-]cccc1.C=CCc1[c-]cccc1.[Pt+2].c1ccc(P(c2ccccc2)c2ccccc2)cc1.c1ccc(P(c2ccccc2)c2ccccc2)cc1,mutagenic call,[1],inactive; negative
same,mutagenic call,[2],inactive; negative
same,mutagenic call,[3],inactive; negative
same,mutagenic call,"Test System: AMES SALMONELLA TYPHIMURIUM, Strain/Indicator: TA2410, Metabolic Activation: NONE, Method: STANDARD PLATE",inactive; negative
Cc1ccc2ccc3cc4ccccc4c4ccc1c2c34,mutagenic call,"Test System: AMES SALMONELLA TYPHIMURIUM, Strain/Indicator: TA100, Metabolic Activation: RAT, INTACT HEPATOCYTES, AROCLOR 1254, Method: PREINCUBATION",active; positive
same,mutagenic call,"Test System: AMES SALMONELLA TYPHIMURIUM, Strain/Indicator: TA100, Metabolic Activation: RAT, NADPH-FORTIFIED HOMOGENIZED HEPATOCYTES, AROCLOR 1254, Method: PREINCUBATION",active; positive
Cc1ccc(N(O)C=O)cc1,mutagenic call,[2],inactive; negative
same,mutagenic call,[7],active; positive
same,mutagenic call,[3],inactive; negative
same,mutagenic call,[8],active; positive
CN(Cc1ccc(C(=O)O)cc1)N=O,mutagenic call,"Test System: AMES SALMONELLA TYPHIMURIUM, Strain/Indicator: TA1535, Metabolic Activation: HAMSTER, LIVER, S-9, AROCLOR 1254, Method: STANDARD PLATE",inactive; negative
same,mutagenic call,[4],inactive; negative
Cc1cc(C(O)c2ncc([N+](=O)[O-])n2C)c(O)c(C(C)(C)C)c1 (stereo unspecified),mutagenic call,[2],inactive; negative
same,mutagenic call,[7],inactive; negative
same,mutagenic call,[3],inactive; negative
same,mutagenic call,[8],inactive; negative
same,mutagenic call,[4],inactive; negative
same,mutagenic call,"Test System: AMES SALMONELLA TYPHIMURIUM, Strain/Indicator: TA1535, Metabolic Activation: RAT, LIVER, S-9, AROCLOR 1254, Method: STANDARD PLATE",inactive; negative
same,mutagenic call,[5],inactive; negative
same,mutagenic call,"Test System: AMES SALMONELLA TYPHIMURIUM, Strain/Indicator: TA1537, Metabolic Activation: RAT, LIVER, S-9, AROCLOR 1254, Method: STANDARD PLATE",inactive; negative
same,mutagenic call,[6],inactive; negative
same,mutagenic call,"Test System: AMES SALMONELLA TYPHIMURIUM, Strain/Indicator: TA1538, Metabolic Activation: RAT, LIVER, S-9, AROCLOR 1254, Method: STANDARD PLATE",inactive; negative
CC(O)/C(=C(\c1ccccc1)c1ccc(OCCN(C)C)cc1)c1ccccc1 (stereo unspecified),mutagenic call,"Test System: CHINESE HAMSTER V-79, Strain/Indicator: V79HHST (HPRT)/6-THIOGUANINE, Metabolic Activation: NONE",inactive; negative
same,mutagenic call,"Test System: CHINESE HAMSTER V-79, Strain/Indicator: V79RHST (HPRT)/6-THIOGUANINE, Metabolic Activation: NONE",active; positive
